The values that follow come from ChEMBL document CHEMBL4368907 (J Med Chem, 2019).

For data set [1], the target named is T1, Cholecystokinin receptor type A (Homo sapiens, UniProt P32238).
T1 sequence (P32238 whole entry): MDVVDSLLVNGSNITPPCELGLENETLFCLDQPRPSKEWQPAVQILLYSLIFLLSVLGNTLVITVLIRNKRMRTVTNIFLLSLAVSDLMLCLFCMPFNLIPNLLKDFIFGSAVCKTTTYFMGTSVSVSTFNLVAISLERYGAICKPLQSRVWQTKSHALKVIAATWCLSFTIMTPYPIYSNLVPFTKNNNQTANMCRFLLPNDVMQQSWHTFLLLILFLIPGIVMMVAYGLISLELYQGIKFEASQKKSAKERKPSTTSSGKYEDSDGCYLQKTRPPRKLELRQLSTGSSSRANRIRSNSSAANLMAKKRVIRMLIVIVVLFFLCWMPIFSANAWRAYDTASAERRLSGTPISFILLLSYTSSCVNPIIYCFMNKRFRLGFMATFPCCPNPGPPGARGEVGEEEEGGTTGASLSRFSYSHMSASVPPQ
The data set is described as follows: Displacement of [125I]-CCK-8 from human CCK1R expressed in human 1321N1 cell membranes after 2 hrs by SPA assay.

The target in data set [2] is T1, Cholecystokinin receptor type A. The data set is described as follows: Agonist activity at human CCK1R expressed in human 1321N1 cells assessed as IP1 accumulation after 1 hr by HTRF assay. Type of data set: functional, cell-based.
The nature of data set [3]: Drug metabolism in Ellegaard Gottingen minipig plasma assessed as C18d-gammaGlu-(OEG)2-Asp-Phe(4sm)-OH peptide metabolite formation at 5 nmol/kg, iv administered as single dose by LC-MS/MS analysis. Type of data set: ADME, organism-based, Sus scrofa. As to conditions: pig, in vivo.
Data set [4] can be described thus: Drug metabolism in Ellegaard Gottingen minipig plasma assessed as C18d-gammaGlu-(OEG)2-Asp-Phe(4sm)-Nle-Gly-OH peptide metabolite formation at 5 nmol/kg, iv administered as single dose by LC-MS/MS analysis. Type of data set: ADME, organism-based, Sus scrofa. As to conditions: pig, in vivo.
The nature of data set [5]: Drug metabolism in Ellegaard Gottingen minipig plasma assessed as C18d-gammaGlu-(OEG)2-Asp-Phe(4sm)-Nle-Gly-Trp-Nle-DMeAspOH peptide metabolite formation at 5 nmol/kg, iv administered as single dose by LC-MS/MS analysis. As to conditions: pig, in vivo. It counts as ADME, organism-based, Sus scrofa.
Another data set concerns the target albumin (Homo sapiens, UniProt P02768). The data set is described as follows: Binding affinity to human serum albumin at 500 nM after 2 hrs by LC-MS analysis. It counts as ADME. Conditions: read-out: PB (converted).
Data set [6] in a line: Protein binding in Ellegaard Gottingen minipig plasma at 500 nM after 2 hrs by LC-MS analysis. It counts as ADME, cell-free, Sus scrofa. Conditions: pig, read-out: PPB (converted).
In data set [7] the test system is Sus scrofa. Description: Anti-obesity activity in lean Landrace Yorkshire Duroc pig assessed as food intake at 30 nmol/kg, sc measured up to 24 hrs post dose (reference value: 1.8 to 2.1 kg). It counts as functional.
The test system of data set [8] is Sus scrofa. Description: Anti-obesity activity in lean Landrace Yorkshire Duroc pig assessed as food intake at 30 nmol/kg, sc measured at 24 to 48 hrs post dose (reference value: 1.8 to 2.1 kg). It counts as functional.
The test system of data set [9] is Sus scrofa. The data set is described as follows: Anti-obesity activity in lean Landrace Yorkshire Duroc pig assessed as food intake at 30 nmol/kg, sc measured at 48 to 72 hrs post dose (reference value: 1.8 to 2.1 kg). Type of data set: functional.
The test system of data set [10] is Sus scrofa. The data set is described as follows: Anti-obesity activity in lean Landrace Yorkshire Duroc pig assessed as food intake at 30 nmol/kg, sc measured at 72 to 96 hrs post dose (reference value: 1.8 to 2.1 kg). Type of data set: functional.
The nature of data set [11]: Plasma concentration in lean Landrace Yorkshire Duroc pig at 30 nmol/kg, sc measured after 96 hrs post dose. It counts as ADME, organism-based, Sus scrofa.
The nature of data set [12]: Toxicity in lean Landrace Yorkshire Duroc pig at 30 nmol/kg, sc measured up to 96 hrs post dose. It counts as organism-based, Sus scrofa. As to conditions: in vivo.
The nature of data set [13]: Chemical stability of the compound in sodium phosphate buffer assessed as loss of purity 1 mM at pH 7.4 at 37 degC after 1 week by UHLPC-UV analysis. It counts as physicochemical. As to conditions: read-out: Drug degradation.
The nature of data set [14]: Chemical stability of the compound in sodium phosphate buffer assessed as loss of purity 1 mM at pH 7.4 at 37 degC after 2 weeks by UHLPC-UV analysis. It counts as physicochemical. As to conditions: read-out: Drug degradation.
Data set [15] in a line: Drug metabolism in sodium phosphate buffer assessed as (2R,5S,8S,14S,17S,21S,44S)-8-((1H-indol-3-yl)methyl)-2-(((S)-1-amino-1-oxo-3-phenylpropan-2-yl)(methyl)carbamoyl)-5,14-dibutyl-3-methyl-4,7,10,13,16,19,23,32,41,46-decaoxo-17-(4-(sulfomethyl)benzyl)-25,28,34,37-tetraoxa-3,6,9,12,15,18,22,31,40,45-decaazadohexacontane-1,21,44,62-tetracarboxylic acid formation at 1 mM at pH 7.4 at 37 degC after 1 to 2 weeks by UHLPC-UV analysis.

Numbered stars: 1 amine (or outer) side, 2 acyl side, 3 side chain; on linkers, the order of the positions; unused ones are H or OH. Square brackets hold non-standard residues; d marks the D form. Peptide text beside a SMILES is read from it. * marks the point of attachment. Phe(4-CH2SO3H) = N[C@@H](Cc1ccc(CS(=O)(=O)O)cc1)C(=O)O; C18 diacid = O=C(O)CCCCCCCCCCCCCCCCC(=O)*; γGlu = O=C(O)[C@H](CCC(=O)[*:2])N[*:1]; NMeF = CN[C@@H](Cc1ccccc1)C(=O)O; dNMeD = CN[C@H](CC(=O)O)C(=O)O; Nle = CCCC[C@H](N)C(=O)O; AEEA = NCCOCCOCC(=O)O

Sequence of albumin (P02768 whole entry): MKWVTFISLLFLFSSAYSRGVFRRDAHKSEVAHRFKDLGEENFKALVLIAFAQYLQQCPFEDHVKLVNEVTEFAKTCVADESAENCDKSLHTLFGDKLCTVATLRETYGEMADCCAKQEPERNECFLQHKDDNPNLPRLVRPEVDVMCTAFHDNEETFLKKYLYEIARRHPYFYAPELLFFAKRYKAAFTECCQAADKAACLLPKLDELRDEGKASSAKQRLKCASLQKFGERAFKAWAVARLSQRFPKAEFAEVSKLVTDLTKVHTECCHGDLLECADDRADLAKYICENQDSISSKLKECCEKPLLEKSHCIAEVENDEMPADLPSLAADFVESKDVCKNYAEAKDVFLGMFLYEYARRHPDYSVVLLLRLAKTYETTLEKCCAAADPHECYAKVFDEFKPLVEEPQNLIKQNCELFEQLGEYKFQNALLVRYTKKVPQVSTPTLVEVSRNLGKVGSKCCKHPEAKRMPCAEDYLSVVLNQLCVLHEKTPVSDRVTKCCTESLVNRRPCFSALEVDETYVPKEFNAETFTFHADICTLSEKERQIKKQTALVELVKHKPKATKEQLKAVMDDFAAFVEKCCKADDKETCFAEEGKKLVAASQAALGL

`CCCC[C@H](NC(=O)[C@H](Cc1ccc(CS(=O)(=O)O)cc1)NC(=O)[C@H](CC(=O)O)NC(=O)COCCOCCNC(=O)COCCOCCNC(=O)CC[C@H](NC(=O)CCCCCCCCCCCCCCCCC(=O)O)C(=O)O)C(=O)NCC(=O)N[C@@H](Cc1c[nH]c2ccccc12)C(=O)N[C@@H](CCCC)C(=O)N(C)[C@H](CC(=O)O)C(=O)N(C)[C@@H](Cc1ccccc1)C(N)=O` ({C18 diacid-γGlu-AEEA-AEEA}-D[Phe(4-CH2SO3H)][Nle]GW[Nle][dNMeD][NMeF]-NH2): the 50% inhibitory concentration (IC50) in [1] was 0.0525 nM. Further, the half-maximal effective concentration (EC50) in data set [2] is 0.251 nM. Also, the Drug metabolism result in data set [3] is “Metabolite_Detected”; in data set [4], “Metabolite_Detected”; in data set [5], “Metabolite_Detected”; in data set [15], “Metabolite detected”. Also, the fraction unbound at 2 h, 0.5 µM (at albumin; in data set [6]) was 0.003 in each case. In addition, the Activity is 1 kg in the data set on Sus scrofa [7]; 1.1 kg in the data set on Sus scrofa [8]; 1.5 kg with Sus scrofa [9]; 1.9 kg in the data set on Sus scrofa [10]; “Non-Toxic” in data set [12]. For the same compound, the concentration at 96 h in data set [11] was 84.9 nM. Besides, the degraded at 168 h, 1000 µM in data set [13] stood at 1.3%. In data set [14], the degraded at 336 h, 1000 µM turned out to be 2.2%.
